From PubChem BioAssay (NCI) come the findings set out here.

Assay in all cases: NCI-60 cell line screen, 48 h
The subject of assay [1] is MDA-MB-231 breast.
Assay [2] deals with SK-MEL-2 melanoma.
The subject of assay [3] is MALME-3M melanoma.
The test system of assay [4] is OVCAR-5 ovarian.
Assay [5] has as its system OVCAR-8 ovarian.
For assay [6], the system named is CAKI-1 renal.
The subject of assay [7] is ACHN renal.
In assay [8] the test system is BT-549 breast.

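Tested at 5 concentrations; 48 h exposure; 96-well plates; endpoints linearly interpolated, else capped at highest concentration. GI50 is the concentration that inhibits growth by half. TGI: total growth inhibition.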 Where a SMILES comes first, the peptide text is derived from it. Bridges are numbered along the chain shown (N, C = ends). [ ]: non-standard residue; d: D form. ξ: configuration not given here. ξThr(3R) = C[C@@H](O)C(N)C(=O)O; S5 = C=CCCC[C@](C)(N)C(=O)O

Consider `COc1cccc(C2=C(c3cn(C)c4cc(F)ccc34)C(=O)NC2=O)c1`, for which the GI50 was > 25 µM in assay [1]; > 19.4 µM in assay [2]; > 18 µM in assay [3]; > 25 µM in assay [4]; > 18.2 µM in assay [5]; > 13.4 µM in assay [6]. The results for the GI50 in assay [7] and in assay [8] were 10.5 µM and > 24 µM, respectively. The TGI in assay [1], in assay [2], in assay [3], in assay [4], in assay [5] and in assay [6] was > 25 µM each time. In addition, the TGI in assay [7] and in assay [8] was > 25 µM each time.
Consider `COc1cccc(/C=C/c2ccnc3ccccc23)c1OC`, for which the TGI in assay [1], in assay [2], in assay [3], in assay [4], in assay [5] and in assay [6] was > 10 µM throughout. For the same molecule, the TGI in assay [7] and in assay [8] was > 10 µM each time.
In the case of `NC(Cc1c[nH]c2ccc(F)cc12)C(=O)O` (stereo not drawn), the GI50 in assay [1] was 600 µM; in assay [2], 2250 µM; in assay [3], 490 µM; in assay [4], 814 µM; in assay [5], 751 µM; in assay [6] it was 1270 µM. In addition, the GI50 is 738 µM in assay [7] and 580 µM in assay [8]. Besides, the TGI in assay [1] is 1670 µM; in assay [2], > 2500 µM; in assay [3], 1130 µM; in assay [4], > 2500 µM; in assay [5] it was > 2500 µM; in assay [6], > 2500 µM. In addition, the values for the TGI in assay [7] and in assay [8] were > 2500 µM and 1620 µM, respectively.
Turning to `Cc1ccc(-c2nc3cc(Cl)c(Cl)cc3nc2C#N)cc1`, the GI50 is > 100 µM in assay [1]; > 100 µM in assay [2]; 92.7 µM in assay [3]; 46.2 µM in assay [4]; > 100 µM in assay [5]; > 100 µM in assay [6]. In addition, the GI50 in assay [7] was 39 µM; in assay [8], > 100 µM. Besides, the TGI in assay [1], in assay [2], in assay [3], in assay [4], in assay [5] and in assay [6] was > 100 µM in each case. The TGI in assay [7] and in assay [8] was > 100 µM each time.
With `CCN(CC)c1ccc(C2NC(=O)c3ccccc3N2)cc1` (stereo not drawn), the TGI was 7.76 µM in assay [1]; > 100 µM in assay [2]; > 100 µM in assay [3]; > 100 µM in assay [4]; > 100 µM in assay [5]; > 26.5 µM in assay [6]. For the same molecule, the TGI in assay [7] and in assay [8] was > 100 µM in each case.
With `CC(=O)N[C@H](C(=O)N[C@@H](CCCNC(=N)N)C(=O)N[C@@H](CCCCN)C(=O)N[C@@H](CCCNC(=N)N)C(=O)NC(C(=O)N[C@@H](CC(C)C)C(=O)N[C@@H](CCCNC(=N)N)C(=O)N[C@@]1(C)CCC/C=C\CCC[C@@](C)(C(=O)N[C@@H](CCCNC(=N)N)C(=O)N[C@@H](CCC(=O)O)C(=O)N[C@@H](CC(C)C)C(=O)N[C@H](C(=O)N[C@@H](CCC(=O)O)C(N)=O)C(C)C)NC(=O)[C@H](CCC(N)=O)NC(=O)[C@H](CC(C)C)NC(=O)[C@H](CC(C)C)NC1=O)[C@@H](C)O)C(C)C` (stereo partly drawn) (Ac-VRKR[ξThr(3R)]LR[S5]LLQ[S5]RELVE-NH2; staple (Z) 8-12), the GI50 in assay [1] is 8.24 µM; in assay [2], 4.73 µM; in assay [3], 1.76 µM; in assay [4], 8.96 µM; in assay [5] it was 2.14 µM; in assay [6], 3.79 µM. Moreover, the values for the GI50 in assay [7] and in assay [8] were 6.97 µM and 3.45 µM, respectively. The TGI in assay [1] amounted to 17.1 µM; in assay [2] it was 17.2 µM; in assay [3] it was 7.14 µM; in assay [4] it was 18.1 µM; in assay [5], 8.32 µM; in assay [6] it was 10.4 µM. The TGI in assay [7] came out at 14.7 µM; in assay [8], 11.1 µM.
Consider `COc1c(O)cc2c(c1O)C(=O)C1=C(CCCC1)C2=O`, for which the TGI in assay [1] is 64.1 µM; in assay [2], > 100 µM; in assay [3] it was 69.3 µM; in assay [4], > 100 µM; in assay [5] it was 57.5 µM; in assay [6] it was 71 µM. In addition, the TGI was 58.4 µM in assay [7] and > 100 µM in assay [8].
Regarding `COc1ccc(Cn2cc3c(c2)-c2oncc2CC3)cc1OC`, the GI50 in assay [1] is 0.255 µM; in assay [2], 0.248 µM; in assay [4] it was 0.339 µM; in assay [5], 0.322 µM; in assay [6], 0.193 µM; in assay [7] it was 0.325 µM. Besides, the GI50 in assay [8] was 0.344 µM. Further, the TGI is > 14.3 µM in assay [1]; 15.1 µM in assay [2]; > 41.9 µM in assay [4]; > 31.7 µM in assay [5]; > 31.3 µM in assay [6]; > 50 µM in assay [7]. The TGI in assay [8] was > 50 µM.
As to `COC(=O)C1(C)CC2C(C)(CCC3(C)C4=CC=C5C(=CC(=O)C(O)=C5C)C4(C)CCC23C)CC1O` (stereo not drawn), the TGI was 1.77 µM in assay [1]; 2.94 µM in assay [2]; 2.24 µM in assay [3]; 3.32 µM in assay [4]; 2.38 µM in assay [5]; 2.27 µM in assay [6]. In assay [7], the TGI is 1.53 µM.
Regarding `CC[C@]1(O)CC2CN(CCc3c([nH]c4ccccc34)[C@@](C(=O)OC)(c3cc4c(cc3OC)N(C=O)[C@H]3[C@@](O)(C(=O)OC)[C@H](OC(C)=O)[C@]5(CC)C=CCN6CC[C@]43[C@@H]65)C2)C1` (stereo partly drawn), the GI50 was < 0.005 µM in assay [1]; < 0.005 µM in assay [2]; 0.0253 µM in assay [4]; 0.00828 µM in assay [5]; 0.232 µM in assay [6]; 0.235 µM in assay [7]. Also, the GI50 in assay [8] was 0.00665 µM. Moreover, the TGI was 2.73 µM in assay [1]; 4.16 µM in assay [2]; > 50 µM in assay [4]; > 50 µM in assay [5]; > 50 µM in assay [6]; > 50 µM in assay [7]. In assay [8], this molecule displayed a TGI of 0.149 µM.
